Data reported in ChEMBL document CHEMBL1201862, “PubChem BioAssay data set” (2004).
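Following 48 hours of exposure in 96-well plates, responses at five concentrations were used to interpolate endpoints linearly. The concentration for 50% growth inhibition is given as GI50.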 Activity calls are given as the source filed them. Cut-off read from the data, not from the text of the source: active = GI50 up to about 1.1 µM and inactive = higher.

Legend:
Test in all cases: DTP human tumour cell line panel, 48 h
NCI-H522 = test system: NCI-H522
UO-31 = test system: UO-31
SNB-19 = test system: SNB-19
SK-MEL-2 = test system: SK-MEL-2
COLO 205 = test system: COLO 205
SN12C = test system: SN12C
MCF7 = test system: MCF7
NCI-H460 = test system: NCI-H460
OVCAR-5 = test system: OVCAR-5
BT-549 = test system: BT-549
Hs-578T = test system: Hs-578T
HOP-62 = test system: HOP-62
RXF 393 = test system: RXF 393
A549 = test system: A549
RPMI-8226 = test system: RPMI-8226
CCRF-CEM = test system: CCRF-CEM
K562 = test system: K562
HT-29 = test system: HT-29
T47D = test system: T47D
HL-60 = test system: HL-60

| SMILES | GI50 (NCI-H522) | GI50 (UO-31) | GI50 (SNB-19) | GI50 (SK-MEL-2) | GI50 (COLO 205) | GI50 (SN12C) | GI50 (MCF7) | GI50 (NCI-H460) | GI50 (OVCAR-5) | GI50 (BT-549) | GI50 (Hs-578T) | GI50 (HOP-62) | GI50 (RXF 393) | GI50 (A549) | GI50 (RPMI-8226) | GI50 (CCRF-CEM) | GI50 (K562) | GI50 (HT-29) | GI50 (T47D) | GI50 (HL-60) |
| --- | --- | --- | --- | --- | --- | --- | --- | --- | --- | --- | --- | --- | --- | --- | --- | --- | --- | --- | --- | --- |
| COc1ccc(CN(CCc2c[nH]c3ccccc23)Cc2ccc(OC)cc2)cc1 | 2.88 µM (inactive) | 1.47 µM (inactive) | 5.13 µM (inactive) | 3.9 µM (inactive) | 2.04 µM (inactive) | 0.968 µM (active) | 3.47 µM (inactive) | 2.15 µM (inactive) | 3.64 µM (inactive) | 5.71 µM (inactive) | 16.7 µM (inactive) | 3.01 µM (inactive) | 4.69 µM (inactive) | 3.63 µM (inactive) | 3.82 µM (inactive) | 6.67 µM (inactive) | 4.75 µM (inactive) | 1.29 µM (inactive) | 1.33 µM (inactive) | – |
| COc1cc(O)ccc1C(=S)SC | 46 µM (inactive) | 51.6 µM (inactive) | 78.2 µM (inactive) | > 100 µM (inactive) | > 100 µM (inactive) | 1.45 µM (inactive) | > 100 µM (inactive) | 77.6 µM (inactive) | > 100 µM (inactive) | > 100 µM (inactive) | 24.1 µM (inactive) | > 100 µM (inactive) | 89.3 µM (inactive) | 38.8 µM (inactive) | 21.8 µM (inactive) | – | 52.8 µM (inactive) | > 100 µM (inactive) | 70.3 µM (inactive) | 23.6 µM (inactive) |
| CCOC(=O)/C=C/[C@H](O[Si](CC)(CC)CC)C(C)(C)C | 29.1 µM (inactive) | > 100 µM (inactive) | 36.3 µM (inactive) | 23.2 µM (inactive) | 80.5 µM (inactive) | 39 µM (inactive) | 25.8 µM (inactive) | > 100 µM (inactive) | 89.9 µM (inactive) | > 100 µM (inactive) | > 100 µM (inactive) | 83.6 µM (inactive) | 47.1 µM (inactive) | 35 µM (inactive) | 20.6 µM (inactive) | 22.4 µM (inactive) | 65.8 µM (inactive) | 34.1 µM (inactive) | 67.1 µM (inactive) | – |
| C[C@]12CCC3c4ccc(O)cc4CC[C@H]3C1CC(=O)N(N)C2=O (stereo partly drawn) | > 100 µM (inactive) | > 100 µM (inactive) | > 100 µM (inactive) | – | > 100 µM (inactive) | > 100 µM (inactive) | > 100 µM (inactive) | > 100 µM (inactive) | > 100 µM (inactive) | > 100 µM (inactive) | > 100 µM (inactive) | > 100 µM (inactive) | > 100 µM (inactive) | > 100 µM (inactive) | – | > 100 µM (inactive) | > 100 µM (inactive) | > 100 µM (inactive) | > 100 µM (inactive) | > 100 µM (inactive) |
| CC(C)(C)OC(=O)NCC(c1c[nH]c2ccccc12)c1c[nH]c2ccccc12 | 18.2 µM (inactive) | 14.1 µM (inactive) | 16.9 µM (inactive) | 18.4 µM (inactive) | 14.6 µM (inactive) | 16.7 µM (inactive) | 67.5 µM (inactive) | 14.9 µM (inactive) | 16.9 µM (inactive) | 18.9 µM (inactive) | 24.1 µM (inactive) | 16.9 µM (inactive) | 4.56 µM (inactive) | 14.6 µM (inactive) | 6.62 µM (inactive) | 14.6 µM (inactive) | – | 15.1 µM (inactive) | 17 µM (inactive) | 14.4 µM (inactive) |
| CC(=O)OC[C@@H](OC(C)=O)[C@@H](OC(C)=O)[C@H]1OC[C@@H]2C[C@H]([C@H]1OC(C)=O)N(Cc1ccccc1)O2 | – | 61.7 µM (inactive) | > 100 µM (inactive) | > 100 µM (inactive) | > 100 µM (inactive) | > 100 µM (inactive) | > 100 µM (inactive) | > 100 µM (inactive) | > 100 µM (inactive) | > 100 µM (inactive) | > 100 µM (inactive) | > 100 µM (inactive) | > 100 µM (inactive) | > 100 µM (inactive) | > 100 µM (inactive) | > 100 µM (inactive) | > 100 µM (inactive) | > 100 µM (inactive) | > 100 µM (inactive) | > 100 µM (inactive) |
| C/C(=N\NC(=S)NNC(=S)N(C)c1ccccc1)c1ccccn1 | – | 0.577 µM (active) | 2.7 µM (inactive) | 5.68 µM (inactive) | 0.673 µM (active) | 1.6 µM (inactive) | 1.84 µM (inactive) | 0.681 µM (active) | 24 µM (inactive) | 3.14 µM (inactive) | 26 µM (inactive) | 0.885 µM (active) | 4.19 µM (inactive) | 1.11 µM (active) | 0.912 µM (active) | 0.399 µM (active) | 2.31 µM (inactive) | 0.455 µM (active) | 2.96 µM (inactive) | 0.343 µM (active) |
| CC(C)C1CNC(=O)C2(/C=N/C(C(C)C)CNC(=O)C3(/C=N/1)CCCO3)CCCO2 (stereo not drawn) | > 10 µM (inactive) | – | > 10 µM (inactive) | – | > 10 µM (inactive) | > 10 µM (inactive) | > 10 µM (inactive) | – | – | > 10 µM (inactive) | > 10 µM (inactive) | > 10 µM (inactive) | > 10 µM (inactive) | > 10 µM (inactive) | > 10 µM (inactive) | > 10 µM (inactive) | > 10 µM (inactive) | > 10 µM (inactive) | > 10 µM (inactive) | > 10 µM (inactive) |
| C/C(=N\NC(N)=S)C(CN1CCCCC1)C(C1=C(O)c2ccccc2OC1)c1ccccc1 (stereo not drawn) | > 100 µM (inactive) | > 100 µM (inactive) | > 100 µM (inactive) | > 100 µM (inactive) | > 100 µM (inactive) | > 100 µM (inactive) | > 100 µM (inactive) | > 100 µM (inactive) | > 100 µM (inactive) | > 100 µM (inactive) | > 100 µM (inactive) | 41 µM (inactive) | > 100 µM (inactive) | > 100 µM (inactive) | 35.2 µM (inactive) | 61.1 µM (inactive) | – | > 100 µM (inactive) | 79.6 µM (inactive) | 36.1 µM (inactive) |
| COc1ccc(N2C(=O)/C(=C/c3ccc(N(CCC#N)CCC#N)cc3)N=C2c2ccccc2)cc1 | – | > 100 µM (inactive) | > 100 µM (inactive) | > 100 µM (inactive) | > 100 µM (inactive) | > 100 µM (inactive) | > 100 µM (inactive) | > 100 µM (inactive) | > 100 µM (inactive) | > 100 µM (inactive) | > 100 µM (inactive) | > 100 µM (inactive) | > 100 µM (inactive) | > 100 µM (inactive) | > 100 µM (inactive) | – | > 100 µM (inactive) | > 100 µM (inactive) | > 100 µM (inactive) | > 100 µM (inactive) |
| CN1C(=O)C23CCCC2CC1(c1ccccc1)S3 (stereo not drawn) | 91.2 µM (inactive) | > 100 µM (inactive) | > 100 µM (inactive) | 49.7 µM (inactive) | > 100 µM (inactive) | > 100 µM (inactive) | > 100 µM (inactive) | – | > 100 µM (inactive) | 95.5 µM (inactive) | 78.9 µM (inactive) | > 100 µM (inactive) | > 100 µM (inactive) | > 100 µM (inactive) | > 100 µM (inactive) | – | > 100 µM (inactive) | > 100 µM (inactive) | 54.6 µM (inactive) | 60.7 µM (inactive) |
| CCCCN1C(=O)CC2[C@@H]3CCc4cc(OC)ccc4C3CC[C@]2(C)C1=O (stereo partly drawn) | – | > 10 µM (inactive) | > 10 µM (inactive) | > 10 µM (inactive) | > 10 µM (inactive) | > 10 µM (inactive) | > 10 µM (inactive) | > 10 µM (inactive) | > 10 µM (inactive) | > 10 µM (inactive) | > 10 µM (inactive) | > 10 µM (inactive) | > 10 µM (inactive) | > 10 µM (inactive) | > 10 µM (inactive) | > 10 µM (inactive) | 7.93 µM (inactive) | > 10 µM (inactive) | > 10 µM (inactive) | 5.04 µM (inactive) |
| O=c1[nH]c2ccc(C(F)(F)F)cc2nc1-c1ccccc1 | > 100 µM (inactive) | – | > 100 µM (inactive) | – | > 100 µM (inactive) | > 100 µM (inactive) | > 100 µM (inactive) | > 100 µM (inactive) | > 100 µM (inactive) | > 100 µM (inactive) | 59.6 µM (inactive) | > 100 µM (inactive) | > 100 µM (inactive) | > 100 µM (inactive) | > 100 µM (inactive) | > 100 µM (inactive) | > 100 µM (inactive) | > 100 µM (inactive) | > 100 µM (inactive) | > 100 µM (inactive) |
| C/C(=N\c1cccc(Cl)c1)c1ccncc1 | > 100 µM (inactive) | > 100 µM (inactive) | > 100 µM (inactive) | > 100 µM (inactive) | > 100 µM (inactive) | > 100 µM (inactive) | > 100 µM (inactive) | > 100 µM (inactive) | > 100 µM (inactive) | > 100 µM (inactive) | > 100 µM (inactive) | > 100 µM (inactive) | > 100 µM (inactive) | > 100 µM (inactive) | > 100 µM (inactive) | > 100 µM (inactive) | > 100 µM (inactive) | > 100 µM (inactive) | > 100 µM (inactive) | – |
| CC(=O)O[C@H]1C(=O)[C@@]2(C)[C@H]([C@H](OC(=O)c3ccccc3)[C@]3(O)C[C@H](OC(=O)[C@H](O)[C@@H](NC(=O)CC(C)(C)C)c4ccccc4)C(C)=C1C3(C)C)C1(OC(C)=O)CO[C@@H]1C[C@@H]2O (stereo partly drawn) | 0.00143 µM (active) | 3.96 µM (inactive) | 0.122 µM (active) | 0.002 µM (active) | 0.0014 µM (active) | 0.00287 µM (active) | < 0.001 µM (active) | 0.00235 µM (active) | – | 0.0968 µM (active) | < 0.001 µM (active) | 0.00671 µM (active) | 0.00796 µM (active) | 0.00371 µM (active) | < 0.001 µM (active) | 0.00171 µM (active) | 0.00113 µM (active) | < 0.001 µM (active) | 0.00908 µM (active) | 0.00105 µM (active) |
